From PubChem BioAssay (NCI)
Several values for one entry are separate records, joined by “and”; a condition that tells them apart may be missing. Equal values may be shown once.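 Values below derive from 48-hour exposures of cells grown in 96-well plates, with endpoints linearly interpolated between the two concentrations bracketing the appropriate inhibition level. GI50 is the concentration that inhibits growth by half. TGI: total growth inhibition.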

What was measured:
Experiment in all cases: growth of human tumour cells (NCI), 48 h
[1] = test system: HCC-2998 colon
[2] = test system: HOP-62 NSCLC
[3] = test system: HS 578T breast
[4] = test system: HT29 colon
[5] = test system: KM12 colon
[6] = test system: MCF7 breast
[7] = test system: OVCAR-8 ovarian
[8] = test system: SN12C renal

C[C@]12O[C@H](C[C@]1(O)CO)n1c3ccccc3c3c4c(c5c6ccccc6n2c5c31)CNC4=O
GI50 [1]: 0.33 µM and 0.237 µM | TGI [1]: 2.5 µM and 2.96 µM | GI50 [2]: 0.0499 µM and 0.0664 µM | TGI [2]: 1.25 µM and 1.07 µM | GI50 [3]: 0.178 µM and 0.239 µM | TGI [3]: 3.01 µM and 3.61 µM | GI50 [4]: 0.166 µM and 0.138 µM | TGI [4]: 3.35 µM and 1.38 µM | GI50 [5]: 0.00535 µM and < 0.01 µM | TGI [5]: 1.4 µM and 0.982 µM | GI50 [6]: 0.0774 µM and 0.0605 µM | TGI [6]: 3.41 µM and 1.92 µM | GI50 [7]: 0.367 µM and 0.391 µM | TGI [7]: > 5.35 µM and 6.53 µM | GI50 [8]: 0.0382 µM and 0.0293 µM | TGI [8]: 2.01 µM and 2.35 µM

C(=N\Nc1nnc2c(n1)[nH]c1ccccc12)/c1cccnc1
TGI [1]: > 100 µM | TGI [2]: > 100 µM | TGI [3]: > 100 µM | TGI [4]: > 100 µM | TGI [5]: > 100 µM | TGI [6]: > 100 µM | TGI [7]: > 100 µM | TGI [8]: > 100 µM

COc1ccc(C(=O)c2cc(OC)c(OC)c(OC)c2)cc1OC(C)=O
GI50 [1]: 0.04 µM | TGI [1]: > 100 µM | GI50 [2]: 0.0618 µM | TGI [2]: > 100 µM | GI50 [3]: 0.0235 µM | TGI [3]: > 100 µM | GI50 [4]: 1.15 µM | TGI [4]: > 100 µM | GI50 [5]: < 0.0133 µM | TGI [5]: > 100 µM | GI50 [6]: 0.0346 µM | TGI [6]: > 100 µM | GI50 [7]: 0.0451 µM | TGI [7]: > 100 µM | GI50 [8]: 0.0509 µM | TGI [8]: > 100 µM

Cn1nc(C(F)(F)F)c(-c2ccc(Cl)c(C(F)(F)F)c2)c1-c1ccc(OCc2ccc(Cl)cc2)cc1O
GI50 [1]: 1.88 µM | TGI [1]: 6.73 µM | GI50 [2]: 1.58 µM | TGI [2]: 6.04 µM | GI50 [3]: 1.42 µM | TGI [3]: 8.98 µM | GI50 [4]: 1.62 µM | TGI [4]: 5.42 µM | GI50 [5]: 1.6 µM | TGI [5]: 5.91 µM | GI50 [6]: 1.52 µM | TGI [6]: 6.01 µM | GI50 [7]: 1.73 µM | TGI [7]: 6.37 µM | GI50 [8]: 1.65 µM | TGI [8]: 5.92 µM

CCSc1oc(-c2ccccc2)nc1[P+](c1ccccc1)(c1ccccc1)c1ccccc1
GI50 [1]: 0.418 µM | TGI [1]: 2.16 µM | GI50 [2]: 0.308 µM | TGI [2]: 1.87 µM | GI50 [3]: 0.314 µM | TGI [3]: 2.72 µM | GI50 [4]: 0.238 µM | TGI [4]: 2.33 µM | GI50 [5]: 0.233 µM | TGI [5]: 1.09 µM | GI50 [6]: 0.246 µM | TGI [6]: 1.28 µM | GI50 [7]: 0.275 µM | TGI [7]: 12.3 µM | GI50 [8]: 0.298 µM | TGI [8]: 1.23 µM

Cc1ccc(Cl)cc1Nc1nc(C(F)(F)F)ccc1C(=O)Nc1cccc(C(F)(F)F)c1
GI50 [1]: 1.78 µM | TGI [1]: 4.46 µM | GI50 [2]: 2.69 µM | TGI [2]: 10.3 µM | GI50 [3]: 4.66 µM | TGI [3]: 20 µM | GI50 [4]: 2.82 µM | TGI [4]: 12.8 µM | GI50 [5]: 3.12 µM | TGI [5]: 12.8 µM | GI50 [6]: 2.49 µM | TGI [6]: 9.5 µM | GI50 [7]: 3.62 µM | TGI [7]: 15.8 µM | GI50 [8]: 4.29 µM | TGI [8]: 18.7 µM

CCCS(=O)(=O)Nc1ccc(F)c(C(=O)c2c[nH]c3ncc(-c4ccc(Cl)cc4)cc23)c1F
GI50 [1]: 5.59 µM and 10 µM | TGI [1]: 17.9 µM and > 10 µM | GI50 [2]: 7.39 µM and > 8.12 µM | TGI [2]: 21.6 µM and > 10 µM | GI50 [3]: 1.3 µM and 1.96 µM | TGI [3]: 6.44 µM and 9.94 µM | GI50 [4]: 0.0887 µM and 0.0812 µM | TGI [4]: 9.55 µM and > 10 µM | GI50 [5]: 4.17 µM and 6.02 µM | TGI [5]: 16.8 µM and > 10 µM | GI50 [6]: 5.24 µM and 8.84 µM | TGI [6]: 20.9 µM and > 10 µM | GI50 [7]: 6.16 µM and > 8.65 µM | TGI [7]: 43.6 µM and > 10 µM | GI50 [8]: 4.52 µM and > 8.4 µM | TGI [8]: 21.9 µM and > 10 µM

CC[C@@]1(O)C(=O)NCc2c1cc1n(c2=O)Cc2cc3ccccc3nc2-1
GI50 [1]: 74 µM | TGI [1]: > 100 µM | GI50 [2]: 0.42 µM | TGI [2]: 4.31 µM | GI50 [3]: > 100 µM | TGI [3]: > 100 µM | GI50 [4]: 9.05 µM | TGI [4]: > 93.7 µM | GI50 [5]: > 50.6 µM | TGI [5]: > 100 µM | GI50 [6]: 0.823 µM | GI50 [7]: 2.12 µM | TGI [7]: > 44.8 µM | GI50 [8]: 2.03 µM | TGI [8]: > 32.6 µM

CN1/C(=C\C(I)C(I)C2=[N+](C)c3ccccc3C2(C)C)C(C)(C)c2ccccc21 (stereo not drawn)
GI50 [1]: 0.371 µM | TGI [1]: 16.9 µM | GI50 [2]: 0.383 µM | TGI [2]: 13.8 µM | GI50 [3]: 0.992 µM | TGI [3]: 39.2 µM | GI50 [4]: 0.242 µM | TGI [4]: 11.4 µM | GI50 [5]: 0.33 µM | TGI [5]: 11.8 µM | GI50 [6]: 0.485 µM | TGI [6]: 19.2 µM | GI50 [7]: 0.303 µM | TGI [7]: 13.9 µM | GI50 [8]: 0.277 µM | TGI [8]: 9.86 µM

CC(CN=C(CC(=O)c1ccc(Br)cc1)c1ccccc1)N=C(CC(=O)c1ccc(Br)cc1)c1ccccc1 (stereo not drawn)
GI50 [1]: 99.1 µM | TGI [1]: > 100 µM | GI50 [2]: > 100 µM | TGI [2]: > 100 µM | GI50 [3]: > 100 µM | TGI [3]: > 100 µM | GI50 [4]: 7.7 µM | TGI [4]: > 100 µM | GI50 [5]: 32.3 µM | TGI [5]: > 100 µM | GI50 [6]: 2.91 µM | TGI [6]: > 100 µM | GI50 [7]: 34.6 µM | TGI [7]: > 100 µM | GI50 [8]: 64.1 µM | TGI [8]: > 100 µM

S=c1nc(-c2nc(=S)[nH]c3c2CCCCCCCCCC3)c2c([nH]1)CCCCCCCCCC2
TGI [1]: > 100 µM | TGI [2]: > 100 µM | TGI [3]: > 100 µM | TGI [4]: > 100 µM | TGI [5]: > 100 µM | TGI [6]: > 100 µM | TGI [7]: > 100 µM | TGI [8]: > 100 µM

O=C1NC(=O)/C(=C/C=C/c2ccccc2)S1
GI50 [1]: 1.95 µM | TGI [1]: 11.1 µM | GI50 [2]: 1.37 µM | TGI [2]: 33.1 µM | GI50 [3]: 13.4 µM | TGI [3]: > 100 µM | GI50 [4]: 12.1 µM | TGI [4]: > 100 µM | GI50 [5]: 8.25 µM | TGI [5]: 21.8 µM | GI50 [6]: 1.36 µM | TGI [6]: > 100 µM | GI50 [7]: 3.48 µM | TGI [7]: > 100 µM | GI50 [8]: 2.05 µM | TGI [8]: > 100 µM

C/C(=C\c1ccc(Cl)cc1)C(C)(C)C(=O)O
TGI [1]: > 100 µM | TGI [2]: > 100 µM | TGI [3]: > 100 µM | TGI [4]: > 100 µM | TGI [5]: > 100 µM | TGI [6]: > 100 µM | TGI [7]: > 100 µM | TGI [8]: > 100 µM
